The NIST ThermoML archive (doi:10.1016/j.tca.2006.05.019)
Values joined by “and” are separate entries in the source; they are usually repeats but may differ in a detail not shown here. Equal entries are not always repeated. Numbers after ± are expanded uncertainties.

Assay: molar heat capacity at constant pressure
Details: 101.33 kPa, Crystal, Vacuum adiabatic calorimetry

O=P([O-])([O-])[O-].[Lu+3] [lutetium phosphate]
Details	molar heat capacity at constant pressure
6 K	0.0357 ± 0.01 J/K/mol
6.51 K	0.0482 ± 0.01 J/K/mol
7.08 K	0.04711 ± 0.01 J/K/mol
7.62 K	0.06861 ± 0.011 J/K/mol
8 K	0.0845 ± 0.011 J/K/mol
8.12 K	0.1033 ± 0.011 J/K/mol
8.6 K	0.1229 ± 0.011 J/K/mol
9.16 K	0.1232 ± 0.011 J/K/mol
9.76 K	0.1438 ± 0.011 J/K/mol
10 K	0.165 ± 0.011 J/K/mol
10.35 K	0.1797 ± 0.011 J/K/mol
10.95 K	0.1984 ± 0.012 J/K/mol
11.52 K	0.2437 ± 0.012 J/K/mol
12 K	0.286 ± 0.012 J/K/mol
12.05 K	0.2931 ± 0.012 J/K/mol
12.7 K	0.351 ± 0.013 J/K/mol
13.5 K	0.4239 ± 0.013 J/K/mol
14 K	0.455 ± 0.013 J/K/mol
14.29 K	0.5003 ± 0.014 J/K/mol
15.07 K	0.5881 ± 0.014 J/K/mol
15.96 K	0.7241 ± 0.015 J/K/mol
16 K	0.676 ± 0.015 J/K/mol
16.71 K	0.8304 ± 0.016 J/K/mol
17.45 K	0.9728 ± 0.016 J/K/mol
18 K	0.962 ± 0.016 J/K/mol
18.21 K	1.085 ± 0.017 J/K/mol
18.94 K	1.201 ± 0.017 J/K/mol
19.66 K	1.318 ± 0.018 J/K/mol
20 K	1.32 ± 0.02 J/K/mol
21.37 K	1.733 ± 0.02 J/K/mol
23.76 K	2.354 ± 0.022 J/K/mol
25 K	2.54 ± 0.02 J/K/mol
26.16 K	3.067 ± 0.024 J/K/mol
28.57 K	3.861 ± 0.025 J/K/mol
30 K	4.26 ± 0.05 J/K/mol
30.99 K	4.819 ± 0.05 J/K/mol
33.41 K	5.784 ± 0.052 J/K/mol
35 K	6.39 ± 0.05 J/K/mol
35.85 K	6.862 ± 0.054 J/K/mol
38.3 K	7.989 ± 0.057 J/K/mol
40 K	8.83 ± 0.06 J/K/mol
40.76 K	9.131 ± 0.059 J/K/mol
43.21 K	10.48 ± 0.06 J/K/mol
45 K	11.45 ± 0.06 J/K/mol
45.69 K	11.91 ± 0.06 J/K/mol
48.16 K	13.16 ± 0.07 J/K/mol
50 K	14.18 ± 0.07 J/K/mol
50.64 K	14.44 ± 0.07 J/K/mol
53.13 K	15.87 ± 0.07 J/K/mol
55 K	16.93 ± 0.07 J/K/mol
55.63 K	17.16 ± 0.08 J/K/mol
58.13 K	18.55 ± 0.08 J/K/mol
60 K	19.67 ± 0.08 J/K/mol
60.65 K	19.95 ± 0.08 J/K/mol
63.14 K	21.38 ± 0.08 J/K/mol
65 K	22.38 ± 0.09 J/K/mol
65.64 K	22.73 ± 0.09 J/K/mol
68.13 K	23.87 ± 0.09 J/K/mol
70 K	25.05 ± 0.09 J/K/mol
70.62 K	25.39 ± 0.09 J/K/mol
73.11 K	26.96 ± 0.09 J/K/mol
75 K	27.68 ± 0.1 J/K/mol
75.6 K	28.21 ± 0.1 J/K/mol
78.1 K	29.35 ± 0.1 J/K/mol
80 K	30.26 ± 0.1 J/K/mol
80.6 K	30.69 ± 0.1 J/K/mol
83.1 K	31.8 ± 0.1 J/K/mol
83.67 K	31.97 ± 0.1 J/K/mol
85 K	32.8 ± 0.11 J/K/mol
87.39 K	33.75 ± 0.11 J/K/mol
90 K	35.28 ± 0.24 J/K/mol
91 K	35.61 ± 0.24 J/K/mol
94.62 K	37.52 ± 0.24 J/K/mol
95 K	37.72 ± 0.24 J/K/mol
98.23 K	39.26 ± 0.24 J/K/mol
100 K	40.1 ± 0.24 J/K/mol
101.84 K	41.01 ± 0.24 J/K/mol
105.45 K	42.73 ± 0.24 J/K/mol
109.04 K	44.39 ± 0.24 J/K/mol
110 K	44.74 ± 0.24 J/K/mol
112.63 K	45.93 ± 0.25 J/K/mol
116.21 K	47.44 ± 0.25 J/K/mol
119.79 K	49.06 ± 0.25 J/K/mol
120 K	49.17 ± 0.25 J/K/mol
123.37 K	50.6 ± 0.25 J/K/mol
126.95 K	52.07 ± 0.25 J/K/mol
130 K	53.39 ± 0.25 J/K/mol
130.52 K	53.52 ± 0.25 J/K/mol
134.08 K	54.89 ± 0.26 J/K/mol
134.32 K	54.86 ± 0.26 J/K/mol
137.64 K	56.24 ± 0.26 J/K/mol
137.89 K	56.62 ± 0.26 J/K/mol
140 K	57.42 ± 0.26 J/K/mol
141.14 K	57.72 ± 0.26 J/K/mol
144.67 K	59.01 ± 0.26 J/K/mol
148.2 K	60.39 ± 0.26 J/K/mol
150 K	61.25 ± 0.26 J/K/mol
151.73 K	61.98 ± 0.26 J/K/mol
152.2 K	62.31 ± 0.26 J/K/mol
155.77 K	63.71 ± 0.26 J/K/mol
159.34 K	65.02 ± 0.27 J/K/mol
160 K	64.87 ± 0.27 J/K/mol
162.89 K	66.21 ± 0.27 J/K/mol
166.44 K	67.34 ± 0.27 J/K/mol
169.99 K	68.5 ± 0.27 J/K/mol
170 K	68.32 ± 0.27 J/K/mol
173.53 K	69.66 ± 0.27 J/K/mol
177.02 K	70.76 ± 0.27 J/K/mol
180 K	71.58 ± 0.27 J/K/mol
180.54 K	71.85 ± 0.27 J/K/mol
184.06 K	72.87 ± 0.27 J/K/mol
187.57 K	73.85 ± 0.27 J/K/mol
190 K	74.68 ± 0.27 J/K/mol
191.08 K	75.02 ± 0.28 J/K/mol
194.58 K	76.04 ± 0.28 J/K/mol
198.07 K	77.09 ± 0.28 J/K/mol
200 K	77.61 ± 0.28 J/K/mol
201.56 K	78.14 ± 0.28 J/K/mol
205.03 K	78.99 ± 0.28 J/K/mol
208.5 K	79.97 ± 0.28 J/K/mol
210 K	80.41 ± 0.28 J/K/mol
211.96 K	80.72 ± 0.28 J/K/mol
215.42 K	81.51 ± 0.28 J/K/mol
218.87 K	82.45 ± 0.28 J/K/mol
220 K	83.06 ± 0.28 J/K/mol
222.31 K	83.48 ± 0.28 J/K/mol
225.73 K	84.25 ± 0.28 J/K/mol
229.14 K	85.1 ± 0.29 J/K/mol
230 K	85.6 ± 0.29 J/K/mol
233.68 K	86.38 ± 0.29 J/K/mol
235.82 K	87.08 ± 0.29 J/K/mol
237.13 K	87.2 ± 0.3 J/K/mol
239.2 K	87.62 ± 0.29 J/K/mol
240 K	88.01 ± 0.29 J/K/mol
242.56 K	88.31 ± 0.29 J/K/mol
245.94 K	89.1 ± 0.29 J/K/mol
249.32 K	90.16 ± 0.29 J/K/mol
250 K	90.31 ± 0.29 J/K/mol
250.77 K	90.59 ± 0.29 J/K/mol
254.14 K	91.42 ± 0.29 J/K/mol
255.94 K	91.8 ± 0.29 J/K/mol
259.22 K	92.4 ± 0.3 J/K/mol
260 K	92.51 ± 0.29 J/K/mol
260.67 K	92.92 ± 0.29 J/K/mol
263.97 K	93.72 ± 0.29 J/K/mol
267.27 K	94.37 ± 0.29 J/K/mol
270 K	94.6 ± 0.29 J/K/mol
270.55 K	94.95 ± 0.3 J/K/mol
273.81 K	95.59 ± 0.3 J/K/mol
277.04 K	96.19 ± 0.3 J/K/mol
278.55 K	96.28 ± 0.3 J/K/mol and 96.26 ± 0.3 J/K/mol
280 K	96.61 ± 0.3 J/K/mol
280.25 K	96.75 ± 0.3 J/K/mol
281.69 K	96.92 ± 0.3 J/K/mol and 96.9 ± 0.3 J/K/mol
283.44 K	97.38 ± 0.3 J/K/mol
284.59 K	97.37 ± 0.3 J/K/mol
286.58 K	97.91 ± 0.3 J/K/mol
287.72 K	97.96 ± 0.3 J/K/mol
289.7 K	98.45 ± 0.3 J/K/mol
290 K	98.53 ± 0.3 J/K/mol
290.83 K	98.55 ± 0.3 J/K/mol
292.79 K	99.14 ± 0.3 J/K/mol
293.91 K	99.28 ± 0.3 J/K/mol
295.89 K	99.69 ± 0.3 J/K/mol
296.98 K	99.82 ± 0.3 J/K/mol
298.92 K	100.3 ± 0.3 J/K/mol
300 K	100.4 ± 0.3 J/K/mol
300.03 K	100.5 ± 0.3 J/K/mol
303.01 K	100.9 ± 0.3 J/K/mol
306.01 K	101.4 ± 0.3 J/K/mol
309.71 K	101.9 ± 0.3 J/K/mol
310 K	102.1 ± 0.3 J/K/mol
312.4 K	102.4 ± 0.3 J/K/mol
315.23 K	102.9 ± 0.3 J/K/mol
318.03 K	103.6 ± 0.3 J/K/mol
320 K	103.8 ± 0.3 J/K/mol
